The target in this test is T1, human kinase Mps-1 (Homo sapiens, UniProt P33981).
T1 construct: N-terminally GST-tagged human full length recombinant Mps-1 kinase; GST (N); purchased Invitrogen, Karslruhe, Germany PV4071
T1 sequence (P33981 1-857): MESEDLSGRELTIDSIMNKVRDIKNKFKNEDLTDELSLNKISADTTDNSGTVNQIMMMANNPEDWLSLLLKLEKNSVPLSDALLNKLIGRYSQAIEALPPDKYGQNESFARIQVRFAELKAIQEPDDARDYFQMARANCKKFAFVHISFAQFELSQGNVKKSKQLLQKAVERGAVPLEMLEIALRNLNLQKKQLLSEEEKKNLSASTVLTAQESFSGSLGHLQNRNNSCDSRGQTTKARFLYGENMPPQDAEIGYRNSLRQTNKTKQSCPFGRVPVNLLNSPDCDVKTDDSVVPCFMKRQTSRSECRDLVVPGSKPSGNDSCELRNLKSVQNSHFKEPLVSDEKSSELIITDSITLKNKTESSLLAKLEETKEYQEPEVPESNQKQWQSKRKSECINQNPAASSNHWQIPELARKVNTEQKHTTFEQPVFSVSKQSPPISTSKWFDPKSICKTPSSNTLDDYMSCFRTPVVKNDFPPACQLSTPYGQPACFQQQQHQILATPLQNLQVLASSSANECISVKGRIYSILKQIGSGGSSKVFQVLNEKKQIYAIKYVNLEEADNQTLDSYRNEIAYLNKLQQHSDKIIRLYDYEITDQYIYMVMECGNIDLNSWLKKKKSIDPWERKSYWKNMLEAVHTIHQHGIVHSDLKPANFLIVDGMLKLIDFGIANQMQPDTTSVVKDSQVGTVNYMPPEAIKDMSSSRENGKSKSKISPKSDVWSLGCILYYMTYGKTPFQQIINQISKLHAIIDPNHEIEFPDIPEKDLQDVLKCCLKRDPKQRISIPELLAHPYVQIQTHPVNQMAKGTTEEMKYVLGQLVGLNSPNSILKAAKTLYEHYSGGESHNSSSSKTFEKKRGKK
Put plainly: Mps-1 kinase assay (TR-FRET). Format: biochemical. As to conditions: GST-tagged human full length recombinant Mps-1; 10 μM ATP; 1 μM peptide substrate; 60 min at 22° C. How it is done: The human kinase Mps-1 phosphorylates a biotinylated substrate peptide. Detection of the phosphorylated product is achieved by time-resolved fluorescence resonance energy transfer (TR-FRET) from Europium-labelled anti-phospho-Serine/Threonine antibody as donor to streptavidin labelled with cross-linked allophycocyanin (SA-XLent) as acceptor. Compounds are tested for their inhibition of the kinase activity.
N-terminally GST-tagged human full length recombinant Mps-1 kinase (purchased from Invitrogen, Karslruhe, Germany, cat. no PV4071) was used. As substrate for the kinase reaction a biotinylated peptide of the amino-acid sequence […] (C-terminus in amide form, purchased from Biosynthan GmbH, Berlin) was used.
The concentration of Mps-1 in the assay was adjusted to the activity of the enzyme lot and was chosen appropriate to have the assay in the linear range, typical enzyme concentrations were in the range of about 1 nM (final conc. in the 5 μl assay volume).
The resulting mixture was incubated 1 h at 22° C. to allow the binding of the phosphorylated peptide to the anti-phospho(Ser/Thr)-Europium-antibody. Subsequently the amount of phosphorylated substrate was evaluated by measurement of the resonance energy transfer from the Europium-labelled anti-phospho(Ser/Thr) antibody to the Streptavidin-XLent. Therefore, the fluorescence emissions at 620 nm and 665 nm after excitation at 350 nm was measured in a Viewlux TR-FRET reader (PerkinElmer LAS, Rodgau-Jügesheim, Germany). The “blank-corrected normalized ratio” (a Viewlux specific readout, similar to the traditional ratio of the emissions at 665 nm and at 622 nm, in which blank and Eu-donor crosstalk are subtracted from the 665 nm signal before the ratio is calculated) was taken as the measure for the amount of phosphorylated substrate.
On the technique in general: In TR-FRET formats the signal depends on donor and acceptor labels being close together.

A word on the IC50: it is the point on the concentration scale where inhibition reaches its midpoint.

In the case of `Cn1nccc1CNc1nc(-c2ccn[nH]2)cn2c(-c3ccc(C(=O)NC4CC4)c(Cl)c3)cnc12` [Example 1-48, 2-chloro-N-cyclopropyl-4-[8-{[(1-methyl-1H-pyrazol-5-yl)methyl]amino}-6-(1H-pyrazol-5-yl)imidazo[1,2-a]pyrazin-3-yl]benzamide], the half-inhibitory concentration (IC50) came to 42.3 nM.
Regarding `CC(C)CNc1nc(-c2ccncc2)cn2c(-c3ccc(C(=O)NC4CC4)c(F)c3)cnc12` [Example 1-49, N-cyclopropyl-2-fluoro-4-{8-[(2-methylpropyl)amino]-6-(pyridin-4-yl)imidazo[1,2-a]pyrazin-3-yl}benzamide], the IC50 came to 3.7 nM.
The result for `CC(C)CNc1nc(-c2ccoc2)cn2c(-c3ccc(C(=O)NC4CC4)c(F)c3)cnc12` [Example 1-50, N-cyclopropyl-2-fluoro-4-{6-(furan-3-yl)-8-[(2-methylpropyl)amino]imidazo[1,2-a]pyrazin-3-yl}benzamide] reads 9.2 nM; that for `CC(C)CNc1nc(-c2ccn[nH]2)cn2c(-c3ccc(C(=O)NC4CC4)c(F)c3)cnc12` [Example 1-51, N-cyclopropyl-2-fluoro-4-{8-[(2-methylpropyl)amino]-6-(1H-pyrazol-5-yl)imidazo[1,2-a]pyrazin-3-yl}benzamide], 8.3 nM.
As to `CC(C)CNc1nc(C2=CCOCC2)cn2c(-c3ccc(C(=O)NC4CC4)c(F)c3)cnc12` [Example 1-52, N-cyclopropyl-4-{6-(3,6-dihydro-2H-pyran-4-yl)-8-[(2-methylpropyl)amino]imidazo[1,2-a]pyrazin-3-yl}-2-fluoro-benzamide], the IC50 came out at 8.2 nM.
The result for `O=C(NC1CC1)c1ccc(-c2cnc3c(NCCC(F)(F)F)nc(-c4ccncc4)cn23)cc1F` [Example 1-53, N-cyclopropyl-2-fluoro-4-{6-(pyridin-4-yl)-8-[(3,3,3-trifluoropropyl)amino]imidazo[1,2-a]pyrazin-3-yl}benzamide] reads 3.8 nM; that for `O=C(NC1CC1)c1ccc(-c2cnc3c(NCCC(F)(F)F)nc(-c4ccoc4)cn23)cc1F` [Example 1-54, N-cyclopropyl-2-fluoro-4-{6-(furan-3-yl)-8-[(3,3,3-trifluoropropyl)amino]imidazo[1,2-a]pyrazin-3-yl}benzamide], 6.6 nM.
For the molecule `O=C(NC1CC1)c1ccc(-c2cnc3c(NCCC(F)(F)F)nc(-c4ccn[nH]4)cn23)cc1F` [Example 1-55, N-cyclopropyl-2-fluoro-4-{6-(1H-pyrazol-5-yl)-8-[(3,3,3-trifluoropropyl)amino]imidazo[1,2-a]pyrazin-3-yl}benzamide], the IC50 is 9.6 nM.
The value for `O=C(NC1CC1)c1ccc(-c2cnc3c(NCCC(F)(F)F)nc(C4=CCOCC4)cn23)cc1F` [Example 1-56, N-cyclopropyl-4-{6-(3,6-dihydro-2H-pyran-4-yl)-8-[(3,3,3-trifluoro-propyl)amino]imidazo [1,2-a]pyrazin-3-yl}-2-fluorobenzamide] was 8.7 nM; that for `CC(C)(O)CNc1nc(-c2ccncc2)cn2c(-c3ccc(C(=O)NC4CC4)c(F)c3)cnc12` [Example 1-57, N-cyclopropyl-2-fluoro-4-{8-[(2-hydroxy-2-methylpropyl)amino]-6-(pyridin-4-yl)imidazo [1,2-a]pyrazin-3-yl} benzamide] was 24.1 nM; that for `CC(C)(O)CNc1nc(-c2ccoc2)cn2c(-c3ccc(C(=O)NC4CC4)c(F)c3)cnc12` [Example 1-58, N-cyclopropyl-2-fluoro-4-{6-(furan-3-yl)-8-[(2-hydroxy-2-methyl-propyl)amino]imidazo [1,2-a]pyrazin-3-yl} benzamide] was 23.1 nM.
The result for `CC(C)(O)CNc1nc(-c2ccn[nH]2)cn2c(-c3ccc(C(=O)NC4CC4)c(F)c3)cnc12` [Example 1-59, N-cyclopropyl-2-fluoro-4-{8-[(2-hydroxy-2-methylpropyl)amino]-6-(1H-pyrazol-5-yl)imidazo [1,2-a]pyrazin-3-yl} benzamide] reads 101 nM; that for `CC(C)(O)CNc1nc(C2=CCOCC2)cn2c(-c3ccc(C(=O)NC4CC4)c(F)c3)cnc12` [Example 1-60, N-cyclopropyl-4-{6-(3,6-dihydro-2H-pyran-4-yl)-8-[(2-hydroxy-2-methylpropyl)amino]imidazo[1,2-a]pyrazin-3-yl}-2-fluorobenzamide], 30.4 nM.
The value for `O=C(NC1CC1)c1ccc(-c2cnc3c(NCC4CCCO4)nc(-c4ccncc4)cn23)cc1F` (centres unmarked) [Example 1-61, N-cyclopropyl-2-fluoro-4-{6-(pyridin-4-yl)-8-[(tetrahydrofuran-2-ylmethyl)amino]imidazo [1,2-a]pyrazin-3-yl} benzamide] was 13.1 nM; that for `O=C(NC1CC1)c1ccc(-c2cnc3c(NCC4CCCO4)nc(-c4ccoc4)cn23)cc1F` (centres unmarked) [Example 1-62, N-cyclopropyl-2-fluoro-4-{6-(furan-3-yl)-8-[(tetrahydrofuran-2-ylmethyl)amino]imidazo [1,2-a]pyrazin-3-yl} benzamide] was 18.3 nM; that for `O=C(NC1CC1)c1ccc(-c2cnc3c(NCC4CCCO4)nc(-c4ccn[nH]4)cn23)cc1F` (centres unmarked) [Example 1-63, N-cyclopropyl-2-fluoro-4-{6-(1H-pyrazol-5-yl)-8-[(tetrahydrofuran-2-ylmethyl)amino]imidazo [1,2-a]pyrazin-3-yl} benzamide] was 95.5 nM.
Take `Cn1nccc1CNc1nc(-c2ccncc2)cn2c(-c3ccc(C(=O)NC4CC4)c(F)c3)cnc12` [Example 1-64, N-cyclopropyl-2-fluoro-4-[8-{[(1-methyl-1H-pyrazol-5-yl)methyl]amino}-6-(pyridin-4-yl)imidazo[1,2-a]pyrazin-3-yl]benzamide]: the IC50 came to 6.5 nM.
The value for `Cn1nccc1CNc1nc(-c2ccoc2)cn2c(-c3ccc(C(=O)NC4CC4)c(F)c3)cnc12` [Example 1-65, N-cyclopropyl-2-fluoro-4-[6-(furan-3-yl)-8-{[(1-methyl-1H-pyrazol-5-yl)methyl]amino}imidazo [1,2-a]pyrazin-3-yl] benzamide] was 4.3 nM; that for `Cn1nccc1CNc1nc(-c2ccn[nH]2)cn2c(-c3ccc(C(=O)NC4CC4)c(F)c3)cnc12` [Example 1-66, N-cyclopropyl-2-fluoro-4-[8-{[(1-methyl-1H-pyrazol-5-yl)methyl]amino}-6-(1H-pyrazol-5-yl)imidazo[1,2-a]pyrazin-3-yl]benzamide] was 30.5 nM; that for `Cn1nccc1CNc1nc(C2=CCOCC2)cn2c(-c3ccc(C(=O)NC4CC4)c(F)c3)cnc12` [Example 1-67, N-cyclopropyl-4-[6-(3,6-dihydro-2H-pyran-4-yl)-8-{[(1-methyl-1H-pyrazol-5-yl)methyl]amino}imidazo[1,2-a]pyrazin-3-yl]-2-fluoro-benzamide] was 15.7 nM.
The value for `Cc1cc(-c2cn3c(-c4ccc(C(=O)NC5CC5)c(C)c4)cnc3c(NCCC(F)(F)F)n2)ccn1` [Example 1-68, N-cyclopropyl-2-methyl-4-{6-(2-methylpyridin-4-yl)-8-[(3,3,3-trifluoro-propyl)amino]imidazo [1,2-a]pyrazin-3-yl} benzamide] was 1.5 nM.
The value for `Cc1cc(-c2cnc3c(NCCC(F)(F)F)nc(-c4cnn(C)c4)cn23)ccc1C(=O)NC1CC1` [Example 1-69, N-cyclopropyl-2-methyl-4-{6-(1-methyl-1H-pyrazol-4-yl)-8-[(3,3,3-trifluoropropyl)amino]imidazo[1,2-a]pyrazin-3-yl}benzamide] was 3.8 nM.
`Cc1cc(-c2cnc3c(NCCC(F)(F)F)nc(-c4cccnc4)cn23)ccc1C(=O)NC1CC1` [Example 1-70, N-cyclopropyl-2-methyl-4-{6-(pyridin-3-yl)-8-[(3,3,3-trifluoropropyl)amino]imidazo[1,2-a]pyrazin-3-yl}benzamide]: the IC50 was found to be 4.2 nM.

Source of the values: patent US20140135319A1, “6-SUBSTITUTED IMIDAZOPYRAZINES FOR USE AS MPS-1 AND TKK INHIBITORS IN THE TREATMENT OF HYPERPROLIFERATIVE DISORDERS” (BAYER INTELLECTUAL PROPERTY GMBH, priority 2010, published 2014).
